Results on one molecule are retold here after paper PMC3671888 (Journal of medicinal chemistry, 2012).

This assay addresses T1, recombinant human sGC (soluble guanylyl cyclase), α1 and β1 subunits (Homo sapiens, UniProt Q02108+Q02153).
T1 sequence (Q02108 1-690): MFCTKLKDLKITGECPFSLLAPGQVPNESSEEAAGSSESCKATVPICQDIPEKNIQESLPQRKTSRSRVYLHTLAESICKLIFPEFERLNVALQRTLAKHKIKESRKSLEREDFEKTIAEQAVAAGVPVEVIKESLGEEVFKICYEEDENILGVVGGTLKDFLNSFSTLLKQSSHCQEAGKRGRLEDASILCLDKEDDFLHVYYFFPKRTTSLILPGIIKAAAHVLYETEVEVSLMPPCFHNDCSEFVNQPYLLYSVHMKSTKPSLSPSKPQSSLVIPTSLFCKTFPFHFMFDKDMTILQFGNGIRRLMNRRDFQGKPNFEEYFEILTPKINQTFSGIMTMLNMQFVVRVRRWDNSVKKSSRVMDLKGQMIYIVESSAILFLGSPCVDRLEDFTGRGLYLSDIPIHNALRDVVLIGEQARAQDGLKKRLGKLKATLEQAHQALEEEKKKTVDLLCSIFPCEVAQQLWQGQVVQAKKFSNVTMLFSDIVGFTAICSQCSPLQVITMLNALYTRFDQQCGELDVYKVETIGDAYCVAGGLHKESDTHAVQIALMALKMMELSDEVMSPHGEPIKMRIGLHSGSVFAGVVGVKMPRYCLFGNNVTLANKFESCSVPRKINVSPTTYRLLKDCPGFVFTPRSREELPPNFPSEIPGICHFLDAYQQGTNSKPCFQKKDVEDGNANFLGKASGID
T1 sequence (Q02153 1-619): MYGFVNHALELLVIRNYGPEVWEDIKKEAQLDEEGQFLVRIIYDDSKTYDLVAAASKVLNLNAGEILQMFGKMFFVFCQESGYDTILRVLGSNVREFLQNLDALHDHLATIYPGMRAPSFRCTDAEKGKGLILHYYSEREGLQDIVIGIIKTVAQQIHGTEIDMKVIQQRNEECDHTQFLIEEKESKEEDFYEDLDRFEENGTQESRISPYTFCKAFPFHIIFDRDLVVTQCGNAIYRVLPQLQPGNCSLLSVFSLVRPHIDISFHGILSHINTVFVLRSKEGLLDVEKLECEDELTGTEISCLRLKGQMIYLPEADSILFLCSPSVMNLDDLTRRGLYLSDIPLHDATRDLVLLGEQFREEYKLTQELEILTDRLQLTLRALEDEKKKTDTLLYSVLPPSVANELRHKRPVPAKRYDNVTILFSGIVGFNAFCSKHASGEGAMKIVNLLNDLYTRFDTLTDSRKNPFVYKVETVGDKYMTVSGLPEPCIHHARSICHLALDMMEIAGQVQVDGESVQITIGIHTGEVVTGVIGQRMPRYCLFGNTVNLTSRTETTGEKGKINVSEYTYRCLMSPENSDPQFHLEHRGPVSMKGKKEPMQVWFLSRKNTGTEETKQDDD
In words: [alpha-32P]GTP to […]cGMP conversion assay. As to conditions: read-out: EC50 [μM] ^b; activation; preincubation with compound at 25 °C. The assay is classed as biochemical.

A word on the EC50: it is the concentration needed to bring the measured effect to its halfway point. Consider `C#N.C#N.C/C1=C2/NC([C@H](CC(N)=O)[C@@]2(C)CCC(=O)NCC(C)O)[C@]2(C)N=C(/C(C)=C3N=C(/C=C4N=C1[C@@H](CCC(N)=O)C\4(C)C)[C@@H](CCC(N)=O)[C@]\3(C)CC(N)=O)[C@@H](CCC(N)=O)[C@]2(C)CC(N)=O.[Co]` (stereo partly shown) [compound 1, dicyanocobinamide], for which the EC50 came to 34.2 µM.
